Experimental data reported in patent US11293927B2, “Screening methods for PARP modulators” (Ribon Therapeutics, Inc., priority 2018, dated 2022).

What was measured:
PARP15 = molecular target: T1, PARP15 (Homo sapiens, UniProt Q460N3); assay: In vitro TR-FRET probe displacement assay (Probe C), PARP15; assay type: binding; details: TR-FRET displacement of Probe C, PARP15 residues 481-678
T1 construct: made in house; host or cells: Sf9
T1 sequence (Q460N3 481-678): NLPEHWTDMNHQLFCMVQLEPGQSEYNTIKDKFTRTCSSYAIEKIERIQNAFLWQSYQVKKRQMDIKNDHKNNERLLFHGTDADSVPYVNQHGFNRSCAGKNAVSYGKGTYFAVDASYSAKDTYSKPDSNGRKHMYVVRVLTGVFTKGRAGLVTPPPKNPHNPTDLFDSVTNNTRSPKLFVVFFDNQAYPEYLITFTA
Method: A portion of PARP15 (residues 481 to 678 of NP_689828.1 (SEQ ID NO: 5), GenBank Accession No. NM_152615) was overexpressed in Sf9 cells. An N-terminal fusion tag, […] (SEQ ID NO: 10), was used to purify the protein from cell lysates. The fusion tag was left on the protein for use in the probe displacement assay.
(§1) Displacement of a Probe C binding to monoPARP active sites was measured using a time-resolved fluorescence resonance energy transfer (TR-FRET) assay. 20 nL of a dose response curve of each test compound was spotted in black 384-well polystyrene proxiplates (Perkin Elmer) using a Mosquito (TTP Labtech). Reactions were performed in a 8 μL volume by adding 6 μL of the monoPARP and Probe C in assay buffer (20 mM HEPES pH=8, 100 mM NaCl, 0.1% bovine serum albumin, 2 mM DTT and 0.002% Tween20), incubating with test compound at 25° C. for 30 min, then adding 2 μL of ULight-streptavidin and LANCE Eu-W 1024 Anti-6×His (Perkin Elmer). Binding reactions were equilibrated at 25° C. for an additional 30 min, then read on an Envision platereader equipped with a LANCE/DELFIA top mirror (Perkin Elmer) using excitation of 320 nm and emission of 615 nm and […] with a 90 μs delay. The ratio of the 665/615 nm emission were calculated for each well to determine the amount of complex of monoPARP and Probe C in each well. […]

PARP12 = molecular target: T2, PARP12 (Homo sapiens, UniProt Q9H0J9); assay: In vitro TR-FRET probe displacement assay (Probe C), PARP12; assay type: binding; design: 489-684 of; details: TR-FRET displacement of Probe C, PARP12 residues 489-684
T2 sequence (Q9H0J9 489-684): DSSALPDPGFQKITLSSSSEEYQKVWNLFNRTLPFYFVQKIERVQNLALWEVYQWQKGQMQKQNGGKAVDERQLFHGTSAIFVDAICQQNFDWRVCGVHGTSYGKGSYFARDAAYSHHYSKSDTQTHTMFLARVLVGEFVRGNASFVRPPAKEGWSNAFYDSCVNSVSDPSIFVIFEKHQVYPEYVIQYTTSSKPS
Method: A portion of PARP12 (residues 489 to 684 of NP_073587.1 (SEQ ID NO: 3), GenBank Accession No. NM_022750.3) was overexpressed in Sf9 cells. An N-terminal fusion tag, MAHHHHHHENLYFQSM (SEQ ID NO: 8), was used to purify the protein from cell lysates. The fusion tag was left on the protein for use in the probe displacement assay.
as §1

Q: Which results are given for `O=c1[nH]ncc(N2Cc3ccc(OC4CCNCC4)cc3C2)c1C(F)(F)F` [Compound A, 5-[5-(Piperidin-4-yloxy)-2,3-dihydro-1H-isoindol-2-yl]-4-(trifluoromethyl)-2,3-dihydropyridazin-3-one]?
A: IC50 (PARP15): 60 nM; IC50 (PARP12): 200 nM
